Source: patent US10377770B2 (Novartis AG, priority 2015, dated 2019)

molecular target: C-Raf FL (full length CRAF with Y340E and Y341E activating mutations, co-expressed with h14-3-3 zeta) (Homo sapiens (Human), UniProt P04049, Y340E/Y341E); assay: In vitro Raf activity determination, AlphaScreen p-MEK readout, c-Raf (C-Raf FL); type: biochemical; details: c-Raf approximately 4 nM, ATP 1 μM, pre-incubation 60 minutes, reaction 1 hour
How it was run: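 Phosphorylation of kinase-dead biotinylated MEK1 (~10 nM) by C-Raf FL (~4 nM) read by AlphaScreen luminescence with anti-phospho-MEK1/2 after EDTA stop. ATP was 1 μM, with a 1 h reaction at room temperature. Compounds were pre-incubated with enzyme and substrate for 60 min in Tris/MgCl2 buffer, pH 7.5.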

C-Raf FL (full length CRAF with Y340E and Y341E activating mutations, co-expressed with h14-3-3 zeta), sequence (P04049 whole entry Y340E/Y341E): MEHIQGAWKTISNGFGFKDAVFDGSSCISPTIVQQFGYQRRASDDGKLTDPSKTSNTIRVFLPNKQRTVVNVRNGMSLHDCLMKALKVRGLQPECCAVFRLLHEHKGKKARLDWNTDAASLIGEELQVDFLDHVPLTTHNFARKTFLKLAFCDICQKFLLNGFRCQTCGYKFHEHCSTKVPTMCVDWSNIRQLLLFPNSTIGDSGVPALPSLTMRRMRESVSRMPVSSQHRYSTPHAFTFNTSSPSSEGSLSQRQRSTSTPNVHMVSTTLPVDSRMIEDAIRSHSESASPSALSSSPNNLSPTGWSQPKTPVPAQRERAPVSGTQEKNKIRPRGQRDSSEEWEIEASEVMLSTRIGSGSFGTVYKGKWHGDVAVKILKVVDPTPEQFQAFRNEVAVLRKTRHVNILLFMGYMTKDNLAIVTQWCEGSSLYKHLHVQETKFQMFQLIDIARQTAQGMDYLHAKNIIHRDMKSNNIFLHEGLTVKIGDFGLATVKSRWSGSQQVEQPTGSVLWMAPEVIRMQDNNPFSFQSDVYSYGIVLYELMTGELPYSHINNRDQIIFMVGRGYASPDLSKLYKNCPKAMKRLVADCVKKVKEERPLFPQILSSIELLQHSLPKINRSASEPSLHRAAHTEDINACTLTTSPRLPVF
C-Raf FL (full length CRAF with Y340E and Y341E activating mutations, co-expressed with h14-3-3 zeta), sequence (P63104 whole entry partner): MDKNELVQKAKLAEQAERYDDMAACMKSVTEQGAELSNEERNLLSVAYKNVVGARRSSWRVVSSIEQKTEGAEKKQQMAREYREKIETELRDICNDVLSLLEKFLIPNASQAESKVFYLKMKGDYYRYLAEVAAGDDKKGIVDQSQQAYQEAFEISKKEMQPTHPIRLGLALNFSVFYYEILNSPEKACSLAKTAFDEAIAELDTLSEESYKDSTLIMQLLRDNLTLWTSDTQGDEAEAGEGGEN

Structure (SMILES) | IC50 [nM]
Cc1ccc(NC(=O)c2ccnc(C(C)(F)F)c2)cc1-c1ccc2c(c1)N1CCOC[C@H]1[C@](C)(N)C2 (racemic) [Example 92, (rac)-(syn)-N-(3-(5-amino-5-methyl-1,2,4,4a,5,6-hexahydro-[1,4]oxazino[4,3-a]quinolin-9-yl)-4-methylphenyl)-2-(1,1-difluoroethyl)isonicotinamide] | 0.61
Cc1ccc(NC(=O)c2ccnc(C(C)(F)F)c2)cc1-c1ccc2c(c1)N1CCOC[C@H]1[C@@](C)(N)C2 (racemic) [Example 93, (rac)-(anti)-N-(3-(5-amino-5-methyl-1,2,4,4a,5,6-hexahydro-[1,4]oxazino[4,3-a]quinolin-9-yl)-4-methylphenyl)-2-(1,1-difluoroethyl)isonicotinamide] | 0.025
Cc1ccc(NC(=O)c2ccnc(C(F)(F)F)c2)cc1-c1cc2n(c(=O)c1)CCC1COCCN21 (racemic) [Example 94, (rac)-N-(4-methyl-3-(8-oxo-2,4,4a,5,6,8-hexahydro-1H-pyrido[2′,1′:2,3]pyrimido[6,1-c][1,4]oxazin-10-yl)phenyl)-2-(trifluoromethyl)isonicotinamide] | 0.019
Cc1ncc(NC(=O)c2ccnc(C(C)(F)F)c2)cc1-c1ccc2c(c1)N1CCOCCC1CC2O (racemic) [Example 96, (rac)-2-(1,1-difluoroethyl)-N-(5-(7-hydroxy-1,2,5,5a,6,7-hexahydro-4H-[1,4]oxazepino[4,5-a]quinolin-10-yl)-6-methylpyridin-3-yl)isonicotinamide] | 0.053
Cc1ccc(NC(=O)c2ccnc(C(C)(F)F)c2)cc1-c1ccc2c(c1)N1CCOC[C@@H]1[C@@H](C(=O)O)C2 (racemic) [Example 100, (rac)-(cis)-9-(5-(2-(1,1-difluoroethyl)isonicotinamido)-2-methylphenyl)-1,2,4,4a,5,6-hexahydro-[1,4]oxazino[4,3-a]quinoline-5-carboxylic Acid] | 0.037
Cc1ccc(NC(=O)c2ccnc(C(F)(F)F)c2)cc1-c1cnc2c(c1)N1CCOC[C@H]1C[C@@H]2O (racemic) [Example 101, rac-cis-N-(3-(6-hydroxy-1,2,4,4a,5,6-hexahydro-[1,4]oxazino[4,3-a][1,5]naphthyridin-9-yl)-4-methylphenyl)-2-(trifluoromethyl)isonicotinamide] | 0.026
Cc1ncc(NC(=O)c2cccc(C(F)(F)F)c2)cc1-c1cnc2c(c1)N1CCOC[C@H]1C[C@@H]2O (racemic) [Example 104, rac-cis-N-(5-(6-Hydroxy-1,2,4,4a,5,6-hexahydro-[1,4]oxazino[4,3-a][1,5]naphthyridin-9-yl)-6-methylpyridin-3-yl)-3-(trifluoromethyl)benzamide] | 0.044
Cc1ccc(NC(=O)c2ccnc(C(C)(F)F)c2)cc1-c1cnc2c(c1)N1CCOCC1CC2O (racemic) [Example 107, rac-cis-2-(1,1-Difluoroethyl)-N-(3-(6-hydroxy-1,2,4,4a,5,6-hexahydro-[1,4]oxazino[4,3-a][1,5]naphthyridin-n-9-yl)-4-methylphenyl)isonicotinamide] | 0.019
Cc1ccc(NC(=O)c2ccnc(C(F)(F)F)c2)cc1-c1cnc2c(c1)N1CCOCC1CC2=O (racemic) [Example 110, rac-N-(4-methyl-3-(6-oxo-1,2,4,4a,5,6-hexahydro-[1,4]oxazino[4,3-a][1,5]naphthyridin-n-9-yl)phenyl)-2-(trifluoromethyl)isonicotinamide] | 0.002
Cc1ccc(NC(=O)c2ccnc(C(F)(F)F)c2)cc1-c1cnc2c(c1)N1CCOCC1CC2(F)F (racemic) [Example 111, rac-N-(3-(6,6-Difluoro-1,2,4,4a,5,6-hexahydro-[1,4]oxazino[4,3-a][1,5]naphthyridin-9-yl)-4-methylphenyl)-2-(trifluoromethyl)isonicotinamide] | 0.0054
Cc1ccc(NC(=O)c2ccnc(C(F)(F)F)c2)cc1-c1cnc2c(c1)N1CCOCC1C(=O)N2 (racemic) [Example 112, rac-N-(4-Methyl-3-(5-oxo-1,2,4,4a,5,6-hexahydropyrido[2′,3′:5,6]pyrazino[2,1-c][1,4]oxazin-9-yl)phenyl)-2-(trifluoromethyl)isonicotinamide] | < 0.0017
CCN1C(=O)C2COCCN2c2cc(-c3cc(NC(=O)c4ccnc(C(F)(F)F)c4)ccc3C)cnc21 (racemic) [Example 113, rac-N-(3-(6-Ethyl-5-oxo-1,2,4,4a,5,6-hexahydropyrido[2′,3′:5,6]pyrazino[2,1-c][1,4]oxazin-9-yl)-4-methylphenyl)-2-(trifluoromethyl)isonicotinamide] | 0.0084
Cc1ccc(NC(=O)c2ccnc(C(C)(F)F)c2)cc1-c1cnc2c(c1)N1CCOC[C@@H]1[C@H](CO)C2 (racemic) [Example 116, rac-trans-2-(1,1-Difluoroethyl)-N-(3-(5-(hydroxymethyl)-1,2,4,4a,5,6-hexahydro-[1,4]oxazino[4,3-a][1,5]naphthyridin-9-yl)-4-methylphenyl)isonicotinamide] | < 0.0017
Cc1ncc(NC(=O)c2cccc(C(F)(F)F)c2)cc1-c1cnc2c(c1)N1CCOC[C@@H]1[C@H](CO)C2 (racemic) [Example 119, rac-trans-N-(5-(5-(Hydroxymethyl)-1,2,4,4a,5,6-hexahydro-[1,4]oxazino[4,3-a][1,5]naphthyridin-9-yl)-6-methylpyridin-3-yl)-3-(trifluoromethyl)benzamide] | 0.01
Cc1ccc(NC(=O)c2ccnc(C(F)(F)F)c2)cc1-c1cnc2c(c1)N1CCOCC1C(CO)C2 (racemic) [Example 123, rac-cis-N-(3-(5-(hydroxymethyl)-1,2,4,4a,5,6-hexahydro-[1,4]oxazino[4,3-a][1,5]naphthyridin-9-yl)-4-methylphenyl)-2-(trifluoromethyl)isonicotinamide] | 0.0052
Cc1ccc(NC(=O)c2ccnc(C(C)(F)F)c2)cc1-c1cnc2c(c1)N1CCOCC1CC(=O)N2 (racemic) [Example 124, rac-2-(1,1-Difluoroethyl)-N-(4-methyl-3-(6-oxo-1,2,4a,5,6,7-hexahydro-4H-[1,4]oxazino[4,3-d]pyrido[2,3-b][1,4]diazepin-10-yl)phenyl)isonicotinamide] | 0.0094
CCN1C(=O)CC2COCCN2c2cc(-c3cc(NC(=O)c4ccnc(C(C)(F)F)c4)ccc3C)cnc21 (racemic) [Example 125, rac-2-(1,1-Difluoroethyl)-N-(3-(7-ethyl-6-oxo-1,2,4a,5,6,7-hexahydro-4H-[1,4]oxazino[4,3-d]pyrido[2,3-b][1,4]diazepin-10-yl)-4-methylphenyl)isonicotinamide] | 0.034
CCN1C(=O)CC2COCCN2c2cc(-c3cc(NC(=O)c4ccnc(C(F)(F)F)c4)ccc3C)cnc21 (racemic) [Example 128, rac-N-(3-(7-Ethyl-6-oxo-1,2,4a,5,6,7-hexahydro-4H-[1,4]oxazino[4,3-d]pyrido[2,3-b][1,4]diazepin-10-yl)-4-methylphenyl)-2-(trifluoromethyl)isonicotinamide] | 0.023
CCN1C(=O)CC2COCCN2c2cc(-c3cc(NC(=O)c4cccc(C(F)(F)F)c4)cnc3C)cnc21 (racemic) [Example 131, rac-N-(5-(7-Ethyl-6-oxo-1,2,4a,5,6,7-hexahydro-4H-[1,4]oxazino[4,3-d]pyrido[2,3-b][1,4]diazepin-10-yl)-6-methylpyridin-3-yl)-3-(trifluoromethyl)benzamide] | 0.06
CCN1C(=O)C2COCCN2c2cc(-c3cc(NC(=O)c4ccnc(C(F)(F)F)c4)ccc3C)nnc21 (racemic) [Example 132, rac-N-(3-(5-Ethyl-6-oxo-5,6,6a,7,9,10-hexahydropyridazino[3′,4′:5,6]pyrazino[2,1-c][1,4]oxazin-2-yl)-4-methylphenyl)-2-(trifluoromethyl)isonicotinamide] | 0.14
Cc1ccc(NC(=O)c2ccnc(C(C)(F)F)c2)cc1-c1cc2c(nn1)OCC1COCCN21 (racemic) [Example 135, rac-2-(1,1-Difluoroethyl)-N-(4-methyl-3-(6a,7,9,10-tetrahydro-6H-[1,4]oxazino[4,3-d]pyridazino[3,4-b][1,4]oxazin-2-yl)phenyl)isonicotinamide] | 0.019
Cc1ccc(NC(=O)c2ccnc(C(C)(F)F)c2)cc1-c1cc2c(nn1)OC(C)(C)C1COCCN21 (racemic) [Example 136, rac-2-(1,1-Difluoroethyl)-N-(3-(6,6-dimethyl-6a,7,9,10-tetrahydro-6H-[1,4]oxazino[4,3-d]pyridazino[3,4-b][1,4]oxazin-2-yl)-4-methylphenyl)isonicotinamide] | 0.018
Cc1ccc(NC(=O)c2ccnc(C(F)(F)F)c2)cc1-c1cc2c(nn1)OC(C)(C)C1COCCN21 (racemic) [Example 139, rac-N-(3-(6,6-dimethyl-6a,7,9,10-tetrahydro-6H-[1,4]oxazino[4,3-d]pyridazino[3,4-b][1,4]oxazin-2-yl)-4-methylphenyl)-2-(trifluoromethyl)isonicotinamide] | 0.057
Cc1ccc(NC(=O)c2ccnc(C(C)(C)F)c2)cc1-c1cnc2c(c1)N1CCOC[C@H]1C[C@@H]2O (racemic) [Example 141, rac-cis-2-(2-fluoropropan-2-yl)-N-(3-(6-hydroxy-1,2,4,4a,5,6-hexahydro-[1,4]oxazino[4,3-a][1,5]naphthyridin-9-yl)-4-methylphenyl)isonicotinamide] | 0.0042
Cc1ccc(NC(=O)c2cncc(C(F)(F)F)c2)cc1-c1cnc2c(c1)N1CCOC[C@H]1C[C@@H]2O (racemic) [Example 144, rac-cis-N-(3-(6-hydroxy-1,2,4,4a,5,6-hexahydro-[1,4]oxazino[4,3-a][1,5]naphthyridin-9-yl)-4-methylphenyl)-5-(trifluoromethyl)nicotinamide] | 0.0023
Cc1ccc(NC(=O)c2cc(C(F)(F)F)ccn2)cc1-c1cnc2c(c1)N1CCOC[C@H]1C[C@@H]2O (racemic) [Example 147, rac-cis-N-(3-(6-hydroxy-1,2,4,4a,5,6-hexahydro-[1,4]oxazino[4,3-a][1,5]naphthyridin-9-yl)-4-methylphenyl)-4-(trifluoromethyl)picolinamide] | 0.0026
